Reference: patent US11098083B2, “Peptide that regulates fat metabolism and method for regulating fat metabolism” (SHENZHEN INSTITUTES OF ADVANCED TECHNOLOGY, priority 2017, dated 2021)
Ends that are not written are not given here.

What was measured:
[1] = test system: DIO-NAFLD mice; experiment: i.p. injection of ISAP1 in DIO-NAFLD mice: liver fat (appearance, oil red O staining); type: in vivo, C57BL/6 mice; conditions: daily i.p. injection 6 weeks
Source text: S122: effect of i.p. injection of ISAP1 on the liver may be studied.
In S121, livers may be collected while collecting the adipose tissues, and appearance of the livers may be photographed. A part of liver tissues may be taken for frozen sectioning, stained with oil red O for microscopic observation, and then a same area may be quantitatively analyzed. […] The […] the color is, the higher the fat content is contained.

[2] = test system: DIO-NAFLD mice; experiment: i.p. injection of ISAP1 in DIO-NAFLD mice: liver functions and blood lipids; type: in vivo, C57BL/6 mice; conditions: daily i.p. 6 weeks, even at 2 pmol/g, compared with HFD control group, FIG. 4
Source text: S123: the effect of i.p. injection of ISAP1 on liver functions and blood lipids in mice may be studied.
In S121, before sacrificing the mice, blood of each mouse may be collected from a tail vein and detected for a level of alanine aminotransferases (ALT), a level of alkaline phosphatases (ALP), a level of aspartate aminotransferases (AST), a serum level of cholesterols, a level of low-density lipoprotein (LDL), and a level of high-density lipoprotein (HDL) using a Roche […] (model cobas 8000) as per manufacturer's instructions.

[3] = molecular target: T1, human GPRC6A (hGPRC6A) (Homo sapiens, UniProt Q5T6X5); experiment: fluorescent binding of OCN peptides to cell membranes of Hela cells with hGPRC6A overexpressed; conditions: Hela cells with hGPRC6A overexpressed, fluorescent detection, FIG. 6B
T1 construct: expressed in transfected cells; host or cells: Hela cells (transfected with Lipofectamine 2000)
T1 sequence (Q5T6X5 19-926): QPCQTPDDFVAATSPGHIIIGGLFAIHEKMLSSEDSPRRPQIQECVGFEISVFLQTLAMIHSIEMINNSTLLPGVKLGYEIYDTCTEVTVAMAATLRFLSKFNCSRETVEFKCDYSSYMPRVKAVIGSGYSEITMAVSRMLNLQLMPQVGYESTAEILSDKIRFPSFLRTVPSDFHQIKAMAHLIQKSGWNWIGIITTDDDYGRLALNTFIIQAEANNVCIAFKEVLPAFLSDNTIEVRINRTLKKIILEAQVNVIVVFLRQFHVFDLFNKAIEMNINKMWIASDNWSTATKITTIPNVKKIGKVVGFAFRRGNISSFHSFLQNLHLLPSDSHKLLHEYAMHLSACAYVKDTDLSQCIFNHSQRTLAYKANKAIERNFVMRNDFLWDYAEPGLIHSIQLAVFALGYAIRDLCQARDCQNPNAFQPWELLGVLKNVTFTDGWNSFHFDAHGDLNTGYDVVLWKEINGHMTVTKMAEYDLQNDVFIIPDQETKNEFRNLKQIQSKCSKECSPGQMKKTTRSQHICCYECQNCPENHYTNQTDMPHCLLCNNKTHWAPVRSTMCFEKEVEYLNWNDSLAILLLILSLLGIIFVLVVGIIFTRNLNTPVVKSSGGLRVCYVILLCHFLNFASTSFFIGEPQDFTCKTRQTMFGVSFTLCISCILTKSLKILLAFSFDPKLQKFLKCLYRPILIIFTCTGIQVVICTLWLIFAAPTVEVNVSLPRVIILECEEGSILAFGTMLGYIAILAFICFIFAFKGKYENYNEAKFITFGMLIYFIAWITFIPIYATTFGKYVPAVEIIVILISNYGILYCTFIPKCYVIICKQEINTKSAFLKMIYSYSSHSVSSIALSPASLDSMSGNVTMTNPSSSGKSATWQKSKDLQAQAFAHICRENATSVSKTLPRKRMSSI
Procedure: S131: overexpression of hGPRC6A in Hela cells may be established.
1) Cell plating: A Hela cell suspension may be plated at a density of 1.6×10^5 cells/mL into a 6-well tray with 2 mL of DMEM per well, incubating at 37° C. and 5% CO2 for 24 hours.
2) A vector carrying hGPRC6A (pReceiver-M61) may be transfected into the Hela cells for overexpression, using Lipofectamine 2000 (Invitrogen) as per manufacturer's instructions, and media containing the vector may be replaced by normal media 4 hours later.
3) After the transfection, the cells may be cultured in the normal media for another 48 hours, and the normal media may be discarded. The cells attached on a bottom of each well may be washed twice with sterile PBS, and 300 μl of TRIzol solution may be added into each well. Cellular RNAs may be extracted as per RNAiso Plus (TaKaRa) instructions, and after a DNase treatment, may be reversely transcribed into cDNAs using DNAEngine and a SuperScript™ (Invitrogen, Canada) kit. The cDNAs may be used as a template, and real-time monitoring and analysis may be performed to fluorescent PCR products at various time points using a SYBR Green (Light Cycler Roche, Germany) method to detect expression levels of the hGPRC6A. […] The selected cell strain may then be detected for its gene expression by qPCR. […]

[4] = test system: wild-type C57BL/6 mice; experiment: intestinal fat (olive oil) absorption in normal mice, i.p. injection of peptide; type: in vivo; conditions: FIG. 5
Procedure: S140: effect of acute gavage of ISAP1 on intestinal fat absorption in normal mice may be studied.
Six-week-old male wild-type C57BL/6 mice may be divided into four groups, three in each group, three out of the four groups of mice may be intestinally perfused with 200 μl sterilized olive oil solution (Sigma), and the other one group of mice may be intestinally perfused with normal saline solution to be a negative control group. After 30 minutes, two groups of the mice treated with sterilized olive oil solution may be i.p. injected with OCN (6 pmol/g) and ISAP1 (6 pmol/g) respectively, and the other one group of the mice treated with sterilized olive oil solution may be i.p. injected with normal saline solution to be a saline control group. Further the mice of the negative control group solution may also be i.p. injected with normal saline solution to be the negative group. The mice of all four groups may be sacrificed 30 minutes later. Small intestine samples may be collected. The small intestine sample may be taken from a duodenum to a caecum, divided into 3 segments of equal length. After washing with pre-cooled normal saline solution, a segment close to the duodenum may be frozen and sliced, stained with oil red O and observed for fat absorption.

YLGASVPSPDPLEPT [ISAP1]
proportion of fat in the liver (oil red O staining) ([1]; compared with HFD control group, FIG. 3C): decreased significantly | liver fat accumulation (liver appearance) ([1]; vs HFD+carrier, FIG. 3A): significantly reduce the liver fat accumulation | level of alanine aminotransferases (ALT) in blood [2]: effective in reducing | level of alkaline phosphatases (ALP) in blood [2]: effective in reducing | level of aspartate aminotransferases (AST) in blood [2]: effective in reducing | level of low-density lipoprotein (LDL) [2]: effective in reducing | serum level of cholesterols [2]: effective in reducing | affinity of binding to the hGPRC6A compared with OCN [3]: consistent with that of the OCN | mouse intestinal absorption of the olive oil (oil red O-positive area / total area of intestinal villi) ([4]; 6 pmol/g i.p. 30 min after 200 μl olive oil, compared with saline control group): effectively reduce | reduction in olive oil absorption compared with OCN treatment ([4]; 6 pmol/g i.p., OCN 6 pmol/g): even more effective than the OCN treatment
